Where a name gives a salt, the structure may show the parent alone.
Molecular target: T1, IRAK4 (Homo sapiens, UniProt Q9NWZ3)
T1 construct: His (N); TEV cleavage site (N)
T1 sequence (Q9NWZ3 1-460): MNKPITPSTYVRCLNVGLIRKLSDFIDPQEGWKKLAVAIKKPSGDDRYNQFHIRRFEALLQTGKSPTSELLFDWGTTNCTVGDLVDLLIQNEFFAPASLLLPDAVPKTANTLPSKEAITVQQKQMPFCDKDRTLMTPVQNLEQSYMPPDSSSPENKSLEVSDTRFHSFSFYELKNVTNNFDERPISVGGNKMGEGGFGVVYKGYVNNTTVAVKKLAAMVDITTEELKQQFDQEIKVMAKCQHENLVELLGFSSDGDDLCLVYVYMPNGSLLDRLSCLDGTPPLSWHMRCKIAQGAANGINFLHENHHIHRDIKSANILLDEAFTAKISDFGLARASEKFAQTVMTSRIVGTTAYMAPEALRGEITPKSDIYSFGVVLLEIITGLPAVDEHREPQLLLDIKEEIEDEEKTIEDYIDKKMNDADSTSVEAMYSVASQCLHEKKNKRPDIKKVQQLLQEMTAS
Experiment: IRAK4 Enzymatic Assay
Assay type: biochemical
Details: His-TEV-IRAK4 20 ng/well, ATP 2 μM, STK1-biotin peptide 300 nM, 3 hours at 30° C., FlashPlate radioactivity
Procedure: IRAK4 is a human purified recombinant enzyme (His-TEV-IRAK1 (194-712)
IRAK4 hydrolyses ATP, autophosphorylates and phosphorylates a Serine/Threonine generic peptidic substrate (STK: 61ST1BLC from CisBio International based in Bagnols/Cèze FR).
Measurement of IRAK-4 inhibition is performed in streptavidin coated 384 well FlashPlate (PerkinElmer #SMP410A). His-TEV-IRAK4 (20 ng/well), ATP (2 μM, [^33P]ATP 0.25 μCi/well), STK1-biotin peptide (300 nM) and compounds in DMSO (range of concentrations from 20 μM to 1nM) or controls (2% DMSO) are incubated for 3 hours at 30° C. in assay buffer: Hepes pH7.0 50 mM, Fatty acid-free BSA 0.1%, Dithiothreitol DTT 2 mM, MgCl2 10 mM, EGTA 0.5 mM, Tween-20 0.01%, MnCl2 5 mM.
Kinase reaction is stopped by addition of EDTA. Supernatant is discarded, plates are washed three times with 150 mM NaCl and radioactivity is then measured in a Microbeta Trilux reader.

IC50 [µM] | Structure (SMILES)
0.1 to 1 | Cn1cc(-c2cccc(-c3ncc(-c4cnn(C5CCC6(CCC(=O)N6)CC5)c4)cn3)c2)cn1 (single isomer, unassigned) [Example 251, Trans-8-(4-{2-[3-(1-Methyl-1H-pyrazol-4-yl)-phenyl]-pyrimidin-5-yl}-pyrazol-1-yl)-1-aza-spiro[4.5]decan-2-one]
< 0.1 | Cn1cc(-c2cccc(-c3ncc(-c4cnn(C5CCC[C@H](S(C)(=O)=O)C5)c4)cn3)c2)cn1 (single isomer, unassigned) [Example 279, 5-[1-(Cis-3-Methanesulfonyl-cyclohexyl)-1H-pyrazol-4-yl]-2-[3-(1-methyl-1H-pyrazol-4-yl)-phenyl]-pyrimidine]
< 0.1 | CC(=O)N1CCCC(n2cc(-c3cnc(-c4cccc(-c5cnn(C)c5)c4)nc3)cn2)C1 (stereo in doubt) [Example 274, 1-[3-((R)-4-{2-[3-(1-Methyl-1H-pyrazol-4-yl)-phenyl]-pyrimidin-5-yl}-pyrazol-1-yl)-piperidin-1-yl]-ethanone]
0.1 to 1 | Cn1cc(-c2cccc(-c3ncc(-c4cnn(C5CCN(C(=O)C(F)(F)F)CC5)c4)cn3)c2)cn1 [Example 4, 2,2,2-Trifluoro-1-[4-(4-{2-[3-(1-methyl-1H-pyrazol-4-yl)-phenyl]-pyrimidin-5-yl}-pyrazol-1-yl)-piperidin-1-yl]-ethanone]
< 0.1 | CC(=O)N1CCC(n2cc(-c3cnc(-c4cccc(-c5cnn(C)c5)c4)nc3)cn2)CC1 [Example 5, 1-[4-(4-{2-[3-(1-Methyl-1H-pyrazol-4-yl)-phenyl]-pyrimidin-5-yl}-pyrazol-1-yl)-piperidin-1-yl]-ethanone]
0.1 to 1 | c1cc(-c2ccoc2)cc(-c2ncc(-c3cnn(C4CCNCC4)c3)cn2)c1 [Example 7, 2-(3-Furan-3-yl-phenyl)-5-(1-piperidin-4-yl-1H-pyrazol-4-yl)-pyrimidine Hydrochloride]
0.1 to 1 | Cn1cc(-c2cccc(-c3ncc(-c4cnn(CC(=O)N5CCCC5)c4)cn3)c2)cn1 [Example 9, 2-(4-{2-[3-(1-Methyl-1H-pyrazol-4-yl)-phenyl]-pyrimidin-5-yl}-pyrazol-1-yl)-1-pyrrolidin-1-yl-ethanone]
0.1 to 1 | Cn1cc(-c2cccc(-c3ncc(-c4cnn(CCN5CCOCC5)c4)cn3)c2)cn1 [Example 10, 4-[2-(4-{2-[3-(1-Methyl-1H-pyrazol-4-yl)-phenyl]-pyrimidin-5-yl}-pyrazol-1-yl)-ethyl]-morpholine]
1 to 5 | CN(C)CCn1cc(-c2cnc(-c3cccc(-c4cnn(C)c4)c3)nc2)cn1 [Example 11, Dimethyl-[2-(4-{2-[3-(1-methyl-1H-pyrazol-4-yl)-phenyl]-pyrimidin-5-yl}-pyrazol-1-yl)-ethyl]-amine]
0.1 to 1 | c1cc(-c2cnoc2)cc(-c2ncc(-c3cnn(C4CCNCC4)c3)cn2)c1 [Example 13, 2-(3-Isoxazol-4-yl-phenyl)-5-(1-piperidin-4-yl-1H-pyrazol-4-yl)-pyrimidine hydrochloride]
1 to 5 | Cc1nn(C)cc1-c1cccc(-c2ncc(-c3cnn(C4CCNCC4)c3)cn2)c1 [Example 14, 2-[3-(1,3-Dimethyl-1H-pyrazol-4-yl)-phenyl]-5-(1-piperidin-4-yl-1H-pyrazol-4-yl)-pyrimidine hydrochloride]
1 to 5 | O=C(Cn1cc(-c2cccc(-c3ncc(-c4cnn(C5CCNCC5)c4)cn3)c2)cn1)N1CCCC1 [Example 17, 2-(4-{3-[5-(1-Piperidin-4-yl-1H-pyrazol-4-yl)-pyrimidin-2-yl]-phenyl}-pyrazol-1-yl)-1-pyrrolidin-1-yl-ethanone hydrochloride]
< 0.1 | c1cc(-c2cn[nH]c2)cc(-c2ncc(-c3cnn(C4CCNCC4)c3)cn2)c1 [Example 18, 5-(1-Piperidin-4-yl-1H-pyrazol-4-yl)-2-[3-(1H-pyrazol-4-yl)-phenyl]-pyrimidine hydrochloride]

More lines, now with the values behind:

Structure (SMILES) | IC50 [µM]
Cn1cc(-c2cccc(-c3ncc(-c4cnn(C5CCC[C@@H](S(C)(=O)=O)C5)c4)cn3)c2)cn1 (single isomer, unassigned) [Example 282, 5-[1-(trans-3-Methanesulfonyl-cyclohexyl)-1H-pyrazol-4-yl]-2-[3-(1-methyl-1H-pyrazol-4-yl)-phenyl]-pyrimidine] | 0.1 to 1
CN1C[C@H]2CC1CN2C(=O)Cn1cc(-c2cnc(-c3cccc(-c4cnn(C)c4)c3)nc2)cn1 (stereo in doubt) [Example 148, 1-((1R,4R)-5-Methyl-2,5-diaza-bicyclo[2.2.1]hept-2-yl)-2-(4-{2-[3-(1-methyl-1H-pyrazol-4-yl)-phenyl]-pyrimidin-5-yl}-pyrazol-1-yl)-ethanone] | 1 to 5
Cn1cc(-c2cccc(-c3ncc(-c4cnn(C5CCCN(S(C)(=O)=O)C5)c4)cn3)c2)cn1 (stereo in doubt) [Example 272, 5-[(R)-1-(1-Methanesulfonyl-piperidin-3-yl)-1H-pyrazol-4-yl]-2-[3-(1-methyl-1H-pyrazol-4-yl)-phenyl]-pyrimidine] | < 0.1
Cn1cc(-c2cccc(-c3ncc(-c4cnn(C5CCNCC5)c4)cn3)c2)cn1 [Example 1, 2-[3-(1-Methyl-1H-pyrazol-4-yl)-phenyl]-5-(1-piperidin-4-yl-1H-pyrazol-4-yl)-pyrimidine hydrochloride] | 0.1 to 1
c1cncc(-c2cccc(-c3ncc(-c4cnn(C5CCNCC5)c4)cn3)c2)c1 [Example 2, 5-(1-(piperidin-4-yl)-1H-pyrazol-4-yl)-2-(3-(pyridin-3-yl)phenyl)pyrimidine hydrochloride] | 0.1 to 1
Cn1cc(-c2cccc(-c3ncc(-c4cn[nH]c4)cn3)c2)cn1 [Example 3, 2-[3-(1-methyl-1H-pyrazol-4-yl)phenyl]-5-(1H-pyrazol-4-yl)pyrimidine] | 0.1 to 1
CN1CCC(n2cc(-c3cnc(-c4cccc(-c5cnn(C)c5)c4)nc3)cn2)CC1 [Example 6, 5-[1-(1-Methyl-piperidin-4-yl)-1H-pyrazol-4-yl]-2-[3-(1-methyl-1H-pyrazol-4-yl)-phenyl]-pyrimidine] | 0.1 to 1
Cn1cc(-c2cccc(-c3ncc(-c4cnn(CC(=O)O)c4)cn3)c2)cn1 [Example 8] | 1 to 5
Cn1cc(-c2cccc(-c3ncc(-c4cnn(C5CCOC5)c4)cn3)c2)cn1 (stereo not shown) [Example 12, 2-[3-(1-Methyl-1H-pyrazol-4-yl)-phenyl]-5-[1-(tetrahydro-furan-3-yl)-1H-pyrazol-4-yl]-pyrimidine] | 0.1 to 1
Cc1c(-c2cccc(-c3ncc(-c4cnn(C5CCNCC5)c4)cn3)c2)cnn1C [Example 15, 2-[3-(1,5-Dimethyl-1H-pyrazol-4-yl)-phenyl]-5-(1-piperidin-4-yl-1H-pyrazol-4-yl)-pyrimidine hydrochloride] | 0.1 to 1
FCC(CF)n1cc(-c2cccc(-c3ncc(-c4cnn(C5CCNCC5)c4)cn3)c2)cn1 [Example 16, 2-{3-[1-(2-Fluoro-1-fluoromethyl-ethyl)-1H-pyrazol-4-yl]-phenyl}-5-(1-piperidin-4-yl-1H-pyrazol-4-yl)-pyrimidine hydrochloride] | 0.1 to 1
CCCn1cc(-c2cccc(-c3ncc(-c4cnn(C5CCNCC5)c4)cn3)c2)cn1 [Example 19, 5-(1-Piperidin-4-yl-1H-pyrazol-4-yl)-2-[3-(1-propyl-1H-pyrazol-4-yl)-phenyl]-pyrimidine hydrochloride] | 0.1 to 1

Reference: patent publication US9216991B2 (Ares Trading S.A., priority 2012, dated 2015)
